Reference: patent US4534978A, “Perfluorocycloamines” (The Green Cross Corporation, priority 1984, dated 1985)

What was measured:
Acute Toxicity Test = assay type: in vivo, Wister-strain male rats; conditions: emulsion i.v., 100 ml/kg-body weight, observed one week, male rats
Experimental: The acute toxicity test on the preparations of the present invention was carried out using the preparations of the present invention shown in Table 4 which had been physiologically isotonized. The test animals used were Wister-strain male rats (weighing 100-120 g).
The results are such that with either emulsion containing perfluoro-N-cyclohexylprrolidine or perfluoro-N-(3'-methylcyclohexyl)pyrrolidine, thre was no death case at 100 ml/kg-body weight and thus their toxicity are very small.

[1] = Distribution of Perfluoro-compound in Organs; assay type: in vivo, Wister-strain male rats; conditions: 4 g/kg into the tail vein, male rats
Source text: The content of perfluoro-N-cyclohexylpyrrolidine uptake in each organ 1, 2 and 4 weeks and 3 months after the administration are shown in Table 5.

Structure (SMILES)	death cases (Acute Toxicity Test)	toxicity (Acute Toxicity Test)	adverse influence on the liver or spleen organ [1]	uptake by the reticulo-endothelial organs and disappearance [1]	Residual Rate of perfluoro-compound ([1]; Liver, 1 week after administration) [%]	Residual Rate of perfluoro-compound ([1]; Liver, 2 weeks after administration) [%]	Residual Rate of perfluoro-compound ([1]; Liver, 3 months after administration) [%]	Residual Rate of perfluoro-compound ([1]; Liver, 4 weeks after administration) [%]	Residual Rate of perfluoro-compound ([1]; Spleen, 1 week after administration) [%]	Residual Rate of perfluoro-compound ([1]; Spleen, 2 weeks after administration) [%]	Residual Rate of perfluoro-compound ([1]; Spleen, 3 months after administration) [%]	Residual Rate of perfluoro-compound ([1]; Spleen, 4 weeks after administration) [%]	half-life ([1]; rat, in vivo, iv, 4000 mg/kg, calculated) [days]
FC(F)(F)C1(F)C(F)(F)C(F)(F)C(F)(F)C(F)(N2C(F)(F)C(F)(F)C(F)(F)C2(F)F)C1(F)F (stereo not drawn) [Example 38, perfluoro-N-(3'-methylcyclohexyl)pyrrolidine]	no death case	very small	–	–	–	–	–	–	–	–	–	–	–
FC1(F)N(C2(F)C(F)(F)C(F)(F)C(F)(F)C(F)(F)C2(F)F)C(F)(F)C(F)(F)C1(F)F [Example 1, perfluoro-N-cyclohexylpyrrolidine]	no death case	very small	no evidence of adverse influence on the liver or spleen organ	taken up in greater amounts by the reticulo-endothelial organs shortly after the administration, but soon disappeared rapidly	21.23	13.63	0.24	4.98	12.33	10.49	0.51	8.52	16
